Test results as given in patent publication US20230257365A1, “SMALL MOLECULE ANDROGEN RECEPTOR PROTEIN DEGRADERS” (THE REGENTS OF THE UNIVERSITY OF MICHIGAN, priority 2020, published 2023).

Target: T1, AR protein (Homo sapiens, UniProt P10275)
T1 construct: endogenous in cells; host or cells: VCaP
T1 sequence (P10275 1-920): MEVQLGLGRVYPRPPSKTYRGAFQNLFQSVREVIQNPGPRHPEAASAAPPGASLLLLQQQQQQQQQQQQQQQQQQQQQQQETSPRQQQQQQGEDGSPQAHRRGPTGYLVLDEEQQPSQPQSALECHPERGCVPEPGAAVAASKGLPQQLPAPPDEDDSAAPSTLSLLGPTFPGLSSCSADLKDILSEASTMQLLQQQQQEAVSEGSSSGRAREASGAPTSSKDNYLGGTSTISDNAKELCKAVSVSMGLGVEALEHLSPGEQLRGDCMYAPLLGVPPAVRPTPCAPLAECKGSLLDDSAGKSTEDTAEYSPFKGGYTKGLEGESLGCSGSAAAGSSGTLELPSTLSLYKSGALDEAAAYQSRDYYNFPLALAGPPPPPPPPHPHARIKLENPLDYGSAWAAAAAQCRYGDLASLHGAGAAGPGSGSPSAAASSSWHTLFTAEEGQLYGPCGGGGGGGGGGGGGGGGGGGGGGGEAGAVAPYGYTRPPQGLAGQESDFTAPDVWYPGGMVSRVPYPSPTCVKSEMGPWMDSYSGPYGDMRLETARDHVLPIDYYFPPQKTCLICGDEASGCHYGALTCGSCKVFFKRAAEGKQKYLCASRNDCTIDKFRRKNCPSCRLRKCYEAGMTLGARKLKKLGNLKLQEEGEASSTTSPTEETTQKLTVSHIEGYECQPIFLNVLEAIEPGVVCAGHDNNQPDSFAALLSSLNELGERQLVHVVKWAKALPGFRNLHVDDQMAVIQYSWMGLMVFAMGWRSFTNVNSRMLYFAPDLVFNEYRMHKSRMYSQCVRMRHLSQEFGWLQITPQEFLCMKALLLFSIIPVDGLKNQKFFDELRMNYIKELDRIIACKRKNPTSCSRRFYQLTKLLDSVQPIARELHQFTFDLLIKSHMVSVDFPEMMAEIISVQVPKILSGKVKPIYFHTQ
Assay: AR protein degradation by western blotting in VCaP cells
Format: cell-based
Method: The appropriate cell line, e.g., prostate cancer LNCaP, Vcap, or MDA-MB-453, cell line, was treated with Compounds of the Disclosure. The treated cells were lysed with RIPA buffer. The AR level in the cell lysates was examined by western blotting and a specific AR antibody (ab 194196, Abeam, Cambridge, Mass. 02139) with concentration of 1:20,000. GAPDH was used as a loading control.
Bands were quantified with ImageJ software. The relative numbers of each band obtained from normalization with its corresponding GAPDH level were compared with Prism 8 software. The DC50 values were produced from Prism 8, and the DC90 values were calculated with an equation=Bottom+(Top−Bottom)/(1+10^((Log EC50−X)*HillSlope) based on DC50 and Hillslope values.
The amount of AR protein degradation in LNCap, VCap, and MDA-MB-453 cells caused representative Compounds of the Disclosure at the concentrations indicated is presented in Table 4.

% AR protein degradation in VCaP Cells (0.001 μM) [%]	% AR protein degradation in VCaP Cells (0.01 μM) [%]	% AR protein degradation in VCaP Cells (0.1 μM) [%]	% AR protein degradation in VCaP Cells (1 μM) [%]	SMILES
3	−5	−5	4	N#Cc1ccc(OC2CCN(C(=O)c3ccc(N4CCC(N5CCN(c6ccc7c(c6)C(=O)N(C6CCC(=O)NC6=O)C7=O)CC5)CC4)cc3)CC2)cc1Cl (stereo not drawn) [compound 336, 2-chloro-4-((1-(4-(4-(4-(2-(2,6-dioxopiperidin-3-yl)-1,3-dioxoisoindolin-5-yl)piperazin-1-yl)piperidin-1-yl)benzoyl)piperidin-4-yl)oxy)benzonitrile]
18	12	9	29	N#Cc1ccc(OC2CCCN(C(=O)c3ccc(N4CCC(N5CCN(c6ccc7c(c6)C(=O)N(C6CCC(=O)NC6=O)C7=O)CC5)CC4)cc3)CC2)cc1Cl (stereo not drawn) [compound 337, 2-chloro-4-((1-(4-(4-(4-(2-(2,6-dioxopiperidin-3-yl)-1,3-dioxoisoindolin-5-yl)piperazin-1-yl)piperidin-1-yl)benzoyl)azepan-4-yl)oxy)benzonitrile]
−1	−12	8	93	N#Cc1ccc(-c2ccn(Cc3ccc(C(=O)N4CCN(C5CCN(c6ccc7c(c6)C(=O)N(C6CCC(=O)NC6=O)C7=O)CC5)CC4)cc3)n2)cc1Cl (stereo not drawn) [compound 338, 2-chloro-4-(1-(4-(4-(1-(2-(2,6-dioxopiperidin-3-yl)-1,3-dioxoisoindolin-5-yl)piperidin-4-yl)piperazine-1-carbonyl)benzyl)-1H-pyrazol-3-yl)benzonitrile]
